The values below come from ChEMBL document CHEMBL3758112, “Synthesis and pharmacological evaluation of trifluoromethyl containing 4-(2-pyrimidinylamino)benzamides as Hedgehog signaling pathway inhibitors” (Bioorg Med Chem, 2016).

The nature of data set [1]: Inhibition of hedgehog signalling in mouse NIH3T3 cells stably transfected with Gli-luciferase construct incubated for 48 hrs by dual luciferase reporter gene assay. Format: cell-based. Particulars: NIH3T3, 48 h. On the technique in general: A reporter such as luciferase makes a cellular process visible.
Data set [2] in a line: Mean residence time (0 to t) in Sprague-Dawley rat at 1 mg/kg, iv measured during 2 mins to 24 hrs period post dose by LC/MS/MS method. To be noted: in vivo. Format: ADME, organism-based.
Data set [3] can be described thus: Half life in Sprague-Dawley rat at 1 mg/kg, iv measured during 2 mins to 24 hrs period post dose by LC/MS/MS method. In kind it is ADME, organism-based. Particulars: in vivo.
Data set [4] in a line: AUC (0 to t) in Sprague-Dawley rat at 1 mg/kg, iv measured during 2 mins to 24 hrs period post dose by LC-MS/MS method. In kind it is ADME, organism-based. Further details: time 0.033-24 hr, dose 1 mg/kg, route intravenous. To be noted: in vivo.
Data set [5] in a line: Cmax in Sprague-Dawley rat at 1 mg/kg, iv measured during 2 mins to 24 hrs period post dose by LC-MS/MS method. In kind it is ADME, organism-based. Further details: dose 1 mg/kg, route intravenous. Particulars: in vivo.
Data set [6] in a line: Clearance in Sprague-Dawley rat at 1 mg/kg, iv measured during 2 mins to 24 hrs period post dose by LC-MS/MS method. To be noted: in vivo. Format: ADME, organism-based.
Data set [7] can be described thus: Apparent volume of distribution in Sprague-Dawley rat at 1 mg/kg, iv measured during 2 mins to 24 hrs period post dose by LC-MS/MS method. Format: ADME, organism-based. To be noted: in vivo, read-out: Vz.
Another data set concerns NIH3T3. As to the kind of experiment: Potency index, ratio of vismodegib IC50 to compound IC50 for inhibition of hedgehog signalling in mouse NIH3T3 cells stably transfected with Gli-luciferase construct. In kind it is cell-based.

For the compound `Cc1cccc(C)c1NC(=O)c1ccc(Nc2ncc(F)c(-c3ccc(OC(F)(F)F)cc3)n2)cc1`, in data set [1], the IC50 (commonly the concentration needed to halve the response being measured) turned out to be 1.6 nM. This counts as single-digit nanomolar.
Still for that read-out and setting: the same measure for `COc1ccc(-c2nc(Nc3ccc(C(=O)Nc4cc(CN5CCCC5)ccc4C)cc3)ncc2C(F)(F)F)cn1`: 9.35 nM; for `O=C(NC1CCN(C(=O)CO)CC1)c1ccc(Nc2ncc(C(F)(F)F)c(-c3ccc(OC(F)(F)F)nc3)n2)cc1`: more than 500 nM.
In turn, `CCN1CCN(Cc2ccc(C)c(NC(=O)c3ccc(Nc4ncc(C(F)(F)F)c(-c5ccc(OC(F)(F)F)cc5)n4)cc3)c2)CC1` showed an IC50 in data set [1] of 62.8 nM.
In turn, `O=C(c1ccc(Nc2ncc(C(F)(F)F)c(-c3ccc(OC(F)(F)F)nc3)n2)cc1)N1CCCC(N2CCOCC2)C1` (stereo unspecified) registered an IC50 in data set [1] of more than 500 nM.
Same read-out and setting: the same measure for `Cc1ccc(CN2CCCC2)cc1NC(=O)c1ccc(Nc2ncc(C(F)(F)F)c(-c3ccc(OC(F)(F)F)cc3)n2)cc1`: 4.23 nM; for `Cc1ccc(CN2CCCCC2)cc1NC(=O)c1ccc(Nc2ncc(C(F)(F)F)c(-c3ccc(OC(F)(F)F)cc3)n2)cc1`: 3.12 nM.
Regarding `Cc1ccc(CN2CCN(C)CC2)cc1NC(=O)c1ccc(Nc2ncc(C(F)(F)F)c(-c3ccc(OC(F)(F)F)cc3)n2)cc1`, half-maximal inhibition in data set [1] (IC50) was put at 5.19 nM. Further, the MRT last (commonly the average time that molecules of a dose stay in the body) in data set [2] stood at 7.15 h. Besides, the half-life (commonly how long it takes for the measured level to halve) in data set [3] is 9.25 h. Also, the AUC(0-t) (in general, exposure summed from dosing to a finite time, without extrapolation to infinity) in data set [4] stood at 1240 ng·h/mL. The highest level in data set [5] (Cmax) was 844 ng/mL. In addition, the clearance – broadly, the rate of elimination divided by the concentration – in data set [6] was 11.6 mL/min/kg. The Vd in data set [7] is 9.22 L/kg.
`Cc1ccc(CN2CCOCC2)cc1NC(=O)c1ccc(Nc2ncc(C(F)(F)F)c(-c3ccccn3)n2)cc1` came in with an IC50 in data set [1] of 14.2 nM. The MRT last in data set [2] was 0.93 h. The half-life in data set [3] is 1.03 h. The same compound had an AUC(0-t) in data set [4] of 826 ng·h/mL. Moreover, the Cmax (commonly the maximum level reached in the sampled fluid or tissue) in data set [5] came to 1420 ng/mL. The clearance in data set [6] was 20.1 mL/min/kg. The Vd in data set [7] was determined as 1.8 L/kg.
`Cc1ccc(CN(C)C)cc1NC(=O)c1ccc(Nc2ncc(C(F)(F)F)c(-c3ccc(OC(F)(F)F)cc3)n2)cc1` gave an IC50 in data set [1] of 18.2 nM.
For the compound `Cc1ccc(CN2CCOCC2)cc1NC(=O)c1ccc(Nc2ncc(C(F)(F)F)c(-c3cnn(C)c3)n2)cc1`, half-maximal inhibition in data set [1] (IC50) was put at 24.5 nM. This IC50 and that of the compound before are within 1.5-fold of each other.
On the same count and under the same terms, the same measure for `Cc1ccc(CN2CCOCC2)cc1NC(=O)c1ccc(Nc2ncc(C(F)(F)F)c(-c3cccnc3)n2)cc1`: 56.2 nM; for `Cc1ccc(CN2CCCC2)cc1NC(=O)c1ccc(Nc2ncc(C(F)(F)F)c(-c3cnn(C)c3)n2)cc1`: 26.3 nM.
The compound `Cc1ccc(CN2CCOCC2)cc1NC(=O)c1ccc(Nc2ncc(C(F)(F)F)c(-c3ccc(OC(F)(F)F)cc3)n2)cc1` gave an IC50 in data set [1] of 1.44 nM. For the same compound, in data set [2], the MRT last is 4.95 h. Besides, in data set [3], the half-life was 8.63 h. This compound gave an AUC(0-t) in data set [4] of 1960 ng·h/mL. The compound further had a Cmax in data set [5] of 2220 ng/mL. Further, the Ratio IC50 in the data set on NIH3T3 came to 5. The same compound had a clearance in data set [6] of 7.82 mL/min/kg. Further, in data set [7], the Vd came out at 5.88 L/kg.
On to `Cc1ccc(CN2CCOCC2)cc1NC(=O)c1ccc(Nc2ncc(C(F)(F)F)c(-c3ccc(C#N)cc3)n2)cc1`, for which half-maximal inhibition in data set [1] (IC50) required 4.24 nM.
Same read-out and setting: next, `Cc1ccc(CN(C)C)cc1NC(=O)c1ccc(Nc2ncc(C(F)(F)F)c(-c3ccccc3)n2)cc1`: 24.9 nM.
`CCn1cc(-c2nc(Nc3ccc(C(=O)Nc4cc(CN5CCOCC5)ccc4C)cc3)ncc2C(F)(F)F)cn1` showed an IC50 in data set [1] of 16.9 nM. The IC50 values of the last two compounds are within 1.5-fold of each other.
Compound `Cc1ccc(CN2CCOCC2)cc1NC(=O)c1ccc(Nc2ncc(C(F)(F)F)c(-c3ccccc3)n2)cc1` gave an IC50 in data set [1] of 102 nM. Also, in data set [2], the MRT last was found to be 1.23 h. Also, the half-life in data set [3] is 2.32 h. In data set [4], this compound yielded an AUC(0-t) of 807 ng·h/mL. In data set [5], the Cmax was 1190 ng/mL. Also, the clearance in data set [6] was 20.9 mL/min/kg. The Vd in data set [7] amounted to 4.13 L/kg.
For `Cc1cnc(Nc2ccc(C(=O)Nc3c(C)cccc3C)cc2)nc1-c1ccc(OC(F)(F)F)cc1`, in data set [1], the IC50 worked out at 1.3 nM.
`CS(=O)(=O)c1ccc(C(=O)Nc2ccc(Cl)c(-c3ccccn3)c2)c(Cl)c1` [VISMODEGIB] gave an IC50 in data set [1] of 7.2 nM. For the same compound, in data set [4], the AUC(0-t) was 2460 ng·h/mL.
